Measured values from patent publication US8110545B2, “Non-proteolysable oligopeptides that inhibit glycoprotein GP41 of the aids virus” (priority 2005, dated 2012).

Target: T1, gp41 of HIV-1 (Human immunodeficiency virus type 1 group M subtype B, UniProt P03375)
T1 construct: cell-cell fusion induced by gp41 of HIV-1 expressed in CHO cells; expressed in transfected cells; host or cells: CHO cells (effector), co-cultured with CD4-expressing HeLa cells (target)
Assay type: cell-based, HIV-1 (BH10 isolate)
Conditions: 20 nM T-20, positive inhibition control, 37° C., 16 hours
Description: The effect has been measured as the inhibition of cell-cell fusion induced by gp41 of HIV-1 expressed in CHO cells, which takes place when they are mixed with CD4 receptor-expressing HeLa cells (BH10 isolate: Gene Bank access number M15654). The oligopeptide concentration was 5 μM and the temperature was 37° C. Incubation in the cell culture medium (GMEM-S supplemented with 1 mM sodium pyruvate and 0.4 mM methionine sulfoximine) was performed for 16 hours. The bars correspond to the number of nuclei in syncytial plates (fused cells with more than 4 nuclei) per field after this time. The means of 4 individual measurements plus the standard deviations are shown.
As a positive inhibition control, cells treated with 20 nM of T-20 (enfuvirtide) are shown. The sample, in the sole presence of gqidev, was processed following the protocol described in the preceding figure.
The lines represent adjustments to hyperbolic-type functions. The assay, in the presence of increasing quantities of oligopeptides, was performed and quantified in accordance with the description of FIG. 3. […]
It was added, at a concentration of 5 μM (micromolar), to the cell culture medium (GMEM-S supplemented with 1 mM sodium pyruvate and 0.4 mM methionine sulfoximine). […] The activity of gp41 is detected by the formation of multi-nucleated cells (CTL panel) produced by the fusion of the plasma membranes.

T1 sequence (P03375 512-856): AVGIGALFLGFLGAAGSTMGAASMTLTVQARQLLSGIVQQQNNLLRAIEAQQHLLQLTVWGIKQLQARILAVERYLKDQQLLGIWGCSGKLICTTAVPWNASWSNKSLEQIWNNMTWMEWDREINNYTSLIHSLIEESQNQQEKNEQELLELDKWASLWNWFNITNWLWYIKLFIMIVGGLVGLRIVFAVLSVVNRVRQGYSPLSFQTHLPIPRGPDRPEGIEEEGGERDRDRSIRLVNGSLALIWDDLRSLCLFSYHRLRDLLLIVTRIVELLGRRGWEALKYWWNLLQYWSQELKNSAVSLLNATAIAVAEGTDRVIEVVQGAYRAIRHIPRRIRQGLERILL

enfuvirtide
inhibitory effect on gp41 activity (cell-cell fusion, formation of syncytia): comparable inhibition of gp41
